Paper PMC6246607, “Novel AR-12 derivatives, P12-23 and P12-34, inhibit flavivirus replication by blocking host de novo pyrimidine biosynthesis” (Emerging Microbes & Infections, 2018)
“And” between values parts separate entries of the source, which are not always exact repeats. Equal entries are not always repeated.

Tests used:
A549 cells [1] = experiment: ER stress and autophagy western blot in A549 cells; type: cell-based, human; conditions: 1 µM, 24 h
Experimental: Supplementary figure 2. […] A549 cells with or without DENV-2 (MOI 5) infection were treated with P12-23 (1 μM), tunicamycin (TM) (5 μg/ml), thapsigargin (TG) (0.5 μM), or chemical chaperon 4-Phenylbutyric acid (4-PBA) (10 mM) for 24 h. Cell lysates were harvested for western blot analysis with antibodies against the indicated proteins.

DENV-2 [2] = experiment: Viral translation assay (NS3 western blot); type: cell-based, dengue virus; conditions: 1 µM added at 1 hpi, A549 cells, DENV-2 MOI 20
Experimental: A549 cells absorbed with DENV-2 (MOI 20) at 4 °C for 1 h were washed to remove unbound viruses. After incubating at 37 °C for 1 h to allow viral entry, cells were treated with P12-23 (1 µM), P12-34 (1 µM) or 2′-c-methyladenosine (20 µM). Cells were harvested at 2, 3, 4, and 6 hpi for western blot analysis as previously described[46] with an anti-NS3 mAb[47] and an anti-actin mAb (NB600-501; Novus Biologicals, Littleton, CO, USA). Protein expression levels were quantified using ImageJ.

DENV-2 [3] = experiment: Viral entry assay; type: cell-based, dengue virus; conditions: 1 µM, A549 cells, DENV-2 MOI 5
Experimental: A549 cells pretreated with P12-23 (1 µM), P12-34 (1 µM) or Pitstop®2 (5 µM) at 37 ℃ for 1 h were absorbed with DENV-2 (MOI 5) at 4 °C for 1 h. After removing the unbound viruses, cells were shifted to 37 ℃ for 30 min for viral entry. The cell surface-associated viruses were then removed by treatment with trypsin-EDTA (ThermoFisher) at 37 °C for 10 min. Viral entry indicated by E protein positivity was determined using a BD FACSCalibur Flow Cytometer (BD) after immunofluorescent staining with an anti-E mAb[47].

DENV-2 [4] = experiment: Viral RNA replication assay (RT-qPCR); type: cell-based, dengue virus; conditions: 1 µM added at 1 hpi versus 2′CMA 20 µM, A549 cells, DENV-2 MOI 5
Experimental: Viral infection (MOI 5) and drug treatment were performed as described for the virus translation assay. Cells were harvested for real-time RT-PCR analysis after removing the cell-free viruses at 1, 2, 3, 6, 9, 12, 18, and 27 hpi. Viral RNA was quantified and normalized with actin RNA as described for the virus binding assay.

ZIKV = experiment: High-content image analysis of ZIKV infection (NS3) in A549 cells; type: cell-based, Zika virus; conditions: for SI (CC50/IC50) / relative potency versus AR-12 (fold) / IC50: ZIKV; for IC50: Zika virus, MOI 0.5, A549 cells, 24 h
Experimental: (§1) Approximately 50% of confluent cells seeded in 96-well plates were infected with viruses in the presence of drugs or DMSO as a solvent control. At 24 h post-infection (hpi), cells were fixed with 4% paraformaldehyde at room temperature (RT) for 20 min, permeated with a 0.5% Triton X-100 buffer for 2 min, and blocked with 3% BSA for 30 min. Nuclei were stained with DAPI (Sigma) at RT for 20 min. Viral NS3 was stained with a mouse anti-NS3 monoclonal antibody (mAb)[47] followed by staining with an Alexa Fluor 488-conjugated goat anti-mouse IgG antibody (ThermoFisher) at RT for 1 h. Nine images from different fields per well were acquired and analyzed using an ImageXpress Micro XLS Widefield High-Content Analysis System (Molecular Devices, Sunnyvale, USA). To quantify viral infection, the fluorescence intensities of viral NS3 or eGFP from the reporter virus were measured using MetaXpress® (Molecular Devices, Sunnyvale, USA) and were calculated with a mock control (infection as 0%) and a DMSO solvent control (infection as 100%).

A549 cells [5] = experiment: LDH release cytotoxicity assay; type: cell-based, human; conditions: 24 h; for CC50: A549 cells; for noncytotoxic concentrations: human A549 cells
Experimental: (§2) Cells were treated with compounds at the indicated concentrations for 24 h. The release of lactate dehydrogenase (LDH) was measured using a Cytotoxicity Detection Kit (Roche, Basel, Switzerland) after removing cell debris. Cells treated with 1% Triton X-100 were used to determine the maximal LDH release.

[6] = LDH release cytotoxicity assay; type: cell-based, human; conditions: human, A549 cells
Experimental: as §2

DENV-2-eGFP = experiment: microbe, parasite or virus in culture; type: cell-based, dengue virus; conditions: for SI (CC50/IC50): DENV-2-eGFP; for IC50: Dengue virus, DENV2, A549, 24 h
Experimental: as §1

DENV-2 [7] = experiment: Viral binding assay; type: cell-based, dengue virus; conditions: 1 µM, A549 cells, DENV-2 MOI 5, 4 °C 1 h
Experimental: A549 cells and DENV-2 separately pretreated with P12-23 (1 µM), P12-34 (1 µM) or heparin (100 unit/ml) at 37 ℃ for 1 h were mixed to allow for viral adsorption at a multiplicity of infection (MOI) of 5 at 4 °C for 1 h. After washing off unbound viruses, RNA was extracted using an RNeasy® Mini Kit (QIAGEN, Hilden, Germany), and viral titers were quantified by real-time RT-PCR as previously described[48] using DENV-2 primers (5′-[…]-3′ and 5′-[…]-3′) and β-actin primers (5′-[…]-3′ and 5′-[…]-3′). After the RNA was normalized to the internal control in each sample, the relative level of viral RNA was determined using the DMSO solvent control.

JEV-eGFP = experiment: microbe, parasite or virus in culture; type: cell-based, Japanese encephalitis virus; conditions: for relative potency versus AR-12 (fold): JEV; for SI (CC50/IC50): JEV-eGFP; for IC50: Japanese encephalitis virus, A549, 24 h
Experimental: as §1

DENV-1 = experiment: High-content image analysis of DENV-1 infection (NS3) in A549 cells; type: cell-based, dengue virus
Experimental: as §1

DENV-2 [8] = experiment: High-content image analysis of DENV-2 infection (NS3) in A549 cells; type: cell-based, dengue virus
Experimental: as §1

DENV-4 = experiment: High-content image analysis of DENV-4 infection (NS3) in A549 cells; type: cell-based, dengue virus
Experimental: as §1

wild-type DENV (DENV1-4) = experiment: High-content image analysis, all four serotypes of wild-type DENV in A549 cells; type: cell-based; conditions: Dengue virus, DENV1, A549, read-out: IC50 range over the four serotypes
Experimental: as §1

DHODH = target: T1, DHODH (Homo sapiens, UniProt Q02127); experiment: BP12-34 pull-down, DHODH; type: binding; conditions: BP12-34 0.25 or 0.5 µM pull-down, A549 cell lysates
T1 construct: endogenous in cells; host or cells: A549 cell lysate
T1 sequence (Q02127 whole entry): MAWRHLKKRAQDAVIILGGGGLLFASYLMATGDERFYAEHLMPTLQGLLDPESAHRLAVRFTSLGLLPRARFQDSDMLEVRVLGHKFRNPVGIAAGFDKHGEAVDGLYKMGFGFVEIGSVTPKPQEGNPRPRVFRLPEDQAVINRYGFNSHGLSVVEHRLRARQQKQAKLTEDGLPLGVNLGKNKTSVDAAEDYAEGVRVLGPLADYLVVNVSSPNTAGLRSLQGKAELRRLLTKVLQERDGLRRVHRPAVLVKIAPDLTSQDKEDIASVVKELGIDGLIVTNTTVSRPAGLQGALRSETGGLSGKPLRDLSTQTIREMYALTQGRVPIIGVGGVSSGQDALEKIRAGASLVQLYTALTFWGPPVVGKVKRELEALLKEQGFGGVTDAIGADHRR
Experimental: (§3) Supplementary figure 4. P12-34 interacts with cytochrome bc1 complex. Cell lysates of A549 were treated with 0.25 μM (+) or 0.5 μM (++) BP12-34 at 4 ℃ for 1 h, then incubated with streptavidin (SA) beads at 4 ℃ for 30 min. Non-specific binding was removed by washing with PBS. After precipitation, P12-34-associated proteins were analyzed by western blot with the indicated antibodies against DHODH and cytochrome bc1 complex.

[9] = tested on: DENV-2 (mouse-adaptive NGC strain); experiment: DENV challenge of Stat1-/- mice; type: in vivo
Experimental: Animal studies followed the guidelines of the Academia Sinica Institutional Animal Care and Use Committee. Five-week-old Stat1^−/− mice were subcutaneously challenged with 1 × 10^5 plaque-forming units (PFU) of DENV-2 (mouse-adaptive NGC strain)[29]. P12-34 (2.5 mg/kg per day in 500 µl PBS containing 10% DMSO) or vehicle control was intraperitoneally injected into DENV-2-infected mice for the first 6 days. At 1, 3, 5 and 7 days post-inoculation (dpi), the viral loads in sera were determined by RT-qPCR as previously described.

[10] = tested on: interferon (IFN)-stimulated response element (ISRE) reporter; experiment: ISRE reporter assay and IFN-stimulated gene expression in HEK 293T cells; type: cell-based, human; conditions: 1 µM, 24 h
Experimental: Short synthetic 5′-triphosphate RNA molecules (ssRNA) was synthesized with use of the RiboMAX™ Large Scale RNA Production Kit (P1280, Promega) from control DNA template in the kit, then extracted with the RNeasy® Mini Kit (QIAGEN). About 80% confluent HEK 293T cells in 48 well-plate were co-transfected with pISRE-Luc (Stratagene, Ref 219089) (10 ng/well) and pRL-TK Renilla reporter plasmids (E2241, Promega) (2 ng/well), and increasing doses of ssRNA, then treated with DMSO, 1 μM brequinar, or 1 μM P12-34 for 24h. The luciferase activities were analyzed by using the Dual-Luciferase® Reporter Assay Kit (Promega) and SpectraMax L Microplate Reader (Molecular devices, San Jose, CA, USA). ISRE-Luciferase activity was firstly normalized with Renilla-luciferase activity, then normalized with DMSO control without ssRNA.
Supplementary figure 5. P12-34 amplifies innate immune response. (a) HEK 293T cells were co-transfected with pISRE-luc and pRL-TK Renilla reporter plasmids, and short synthetic 5′-triphosphate RNA molecules (ssRNA), then treated with DMSO, brequinar (1 μM), or P12-34 (1 μM) for 24 h. ISRE-Luciferase activity was normalized with Renilla-luciferase activity in each sample, and then the relative ISRE-Luc level was determined with the DMSO control without ssRNA. Representative data from repeated experiments are shown as mean and SD (n =3). […]

cytochrome bc1 complex = target: T2, cytochrome bc1 complex (Homo sapiens, UniProt P00156+P22695+P31930); experiment: BP12-34 pull-down, cytochrome bc1 complex; type: binding; conditions: BP12-34 0.25 or 0.5 µM pull-down, A549 cell lysates
T2 construct: endogenous in cells; host or cells: A549 cell lysate
Experimental: as §3

DENV-3 = experiment: High-content image analysis of DENV-3 infection (NS3) in A549 cells; type: cell-based, dengue virus
Experimental: as §1

[11] = P12-34 1 µM, uridine 50 µg/ml, A549 cells

| SMILES | effect on NS3 levels at early stage of infection (viral translation) (DENV-2 [2]) | effect on viral entry (DENV-2 [3]) | suppression of intracellular viral RNA replication (DENV-2 [4]) | SI (CC50/IC50) (ZIKV; A549 cells) | relative potency versus AR-12 (fold) (ZIKV; A549 cells) | IC50 (ZIKV) | CC50 (A549 cells [5]) | noncytotoxic concentrations (A549 cells [5]) | CC50 at 24 h [6] | SI (CC50/IC50) (DENV-2-eGFP; A549 cells) | IC50 (DENV-2-eGFP) | effect on viral binding (DENV-2 [7]) | relative potency versus AR-12 (fold) (JEV-eGFP; A549 cells) | SI (CC50/IC50) (JEV-eGFP; A549 cells) | IC50 (JEV-eGFP) | other results |
| --- | --- | --- | --- | --- | --- | --- | --- | --- | --- | --- | --- | --- | --- | --- | --- | --- |
| CC(C)(N)C(=O)Nc1ccc(-n2cc(C(F)(F)F)cc2-c2ccc3c(ccc4ccccc43)c2)cc1 [P12-23] | did not reduce NS3 levels until 4~6 h post-infection | no suppressive effect | more potent than 2′CMA | 158 ± 13.6 | ~ 10 fold | 130 ± 11.7 nM | 20500 ± 100 nM | ≤ 12.5 µM | ~20000 nM | 297 and 296.7 ± 35.1 | 69.7 ± 8.9 nM | no suppressive effect | ~ 10 fold | 385.5 ± 11.8 | 53.2 ± 1.6 nM | induction of ER stress (GRP78, eIF2α phosphorylation) or autophagy (LC3B form II) (A549 cells [1]): did not significantly induce ER stress |
| N[C@@H](Cc1ccccc1)C(=O)Nc1ccc(-n2cc(C(F)(F)F)cc2-c2ccc3c(ccc4ccccc43)c2)cc1 [P12-34] | did not reduce NS3 levels until 4~6 h post-infection | no suppressive effect | more potent than 2′CMA | 171.4 ± 16.1 | ~ 10 fold | 119 ± 11.7 nM | 20300 ± 200 nM | ≤ 12.5 µM | ~20000 nM | 388 and 387.9 ± 14.7 | 52.1 ± 2 nM | no suppressive effect | ~ 10 fold | 360.3 ± 3.1 | 56.1 ± 0.5 nM | SI (CC50/IC50) (DENV-1; DENV-1, A549 cells): 206.3 ± 3.5; IC50 (DENV-1; Dengue virus, DENV1, A549, 24 h): 98 ± 1.7 nM; SI (CC50/IC50) (DENV-2 [8]; DENV-2, A549 cells): 326.5 ± 26.4; IC50 (DENV-2 [8]; Dengue virus, DENV2, A549, 24 h): 62.2 ± 4.9 nM; SI (CC50/IC50) (DENV-4; DENV-4, A549 cells): 317.8 ± 24.9; IC50 (DENV-4; Dengue virus, DENV4, A549, 24 h): 63.9 ± 5.1 nM; IC50 (wild-type DENV (DENV1-4)): 62 to 98 nM; interaction with DHODH (DHODH): did not appear to interact with DHODH; suppression of ZIKV replication with uridine supplement (ZIKV; [11]): this effect of uridine was also noted; mice alive at 39 dpi ([9]; Stat1-/- mice, subcutaneous DENV-2 challenge, 2.5 mg/kg per day i.p. for first 6 days, n = 5): 60%; viral genome copy numbers in sera ([9]; Stat1-/- mice, subcutaneous DENV-2 challenge, 2.5 mg/kg per day i.p., especially at 3 dpi): significantly reduced; protection against DENV challenge injected intraperitoneally ([9]; virus injected intraperitoneally, data not shown): did not protect mice; innate immune responses triggered by ssRNA (ISRE reporter, IFIT1, IRF-1) [10]: enhanced the innate immune responses; binding to cytochrome bc1 complex (cytochrome bc1 complex): bind cytochrome bc1 complex in a dose-dependent manner; suppressive effect on DENV replication with added Oro or DHO (DENV-2-eGFP; P12-34 1 µM, A549 cells, DENV-2-eGFP MOI 5): addition of Oro but not DHO could block the suppressive effect; anti-DENV activity in mitochondria-depleted cells (DENV-2-eGFP; ρ0 A549 cells, DENV-2-eGFP MOI 5, 24 h): lost; SI (CC50/IC50) (DENV-3; DENV-3, A549 cells): 223.4 ± 8.6; IC50 (DENV-3; Dengue virus, DENV3, A549, 24 h): 90.6 ± 3.4 nM; suppression of JEV replication with uridine supplement (JEV-eGFP; [11]): this effect of uridine was also noted |
| Cc1c(-c2ccc(-c3ccccc3F)cc2)nc2ccc(F)cc2c1C(=O)O [brequinar, reference compound] | – | – | – | – | – | – | – | – | – | – | – | – | – | – | – | effect on DENV replication (DENV-2-eGFP; A549 cells, DENV-2-eGFP MOI 5, reversed by exogenous uridine 50 µg/ml): reduced DENV replication in a dose-dependent manner |
